From patent US7825128B2, “Sulfoximine-substituted pyrimidines, processes for production thereof and use thereof as drugs” (Bayer Schering Pharma AG, priority 2005, dated 2010) come the findings set out here.

Molecules are shown by their SMILES.

Assay type in all cases: biochemical
The target in one assay is T1, Aurora-C (Homo sapiens, UniProt Q9UQB9).
T1 construct: made in house; host or cells: transiently transfected HEK293 cells
T1 sequence (Q9UQB9 1-309): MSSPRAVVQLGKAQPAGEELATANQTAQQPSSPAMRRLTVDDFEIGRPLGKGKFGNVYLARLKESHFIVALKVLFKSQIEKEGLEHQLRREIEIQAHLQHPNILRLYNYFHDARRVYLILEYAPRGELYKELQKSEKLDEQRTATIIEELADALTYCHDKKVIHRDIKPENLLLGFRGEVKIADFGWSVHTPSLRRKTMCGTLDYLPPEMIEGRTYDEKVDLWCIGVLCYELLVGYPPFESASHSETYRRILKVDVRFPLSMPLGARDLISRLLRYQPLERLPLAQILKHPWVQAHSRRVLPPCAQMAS
Nature of the assay: Aurora-C kinase assay. As to conditions: 3 μM ATP. The protocol:
Recombinant Aurora-C Protein was expressed in transiently transfected HEK293 cells and then purified. As the kinase substrate, the biotinylated peptide with the amino acid sequence biotin-FMRLRRLSTKYRT, which was purchased from the company Jerini AG in Berlin, was used.
Aurora-C [5 nM in the test mixture, test volume 5 μl] was incubated for 90 mins at 22° C. in the presence of different concentrations of test substances (0 μM, and 10 data points within the range 0.001-20 μM in duplicate values) in assay buffer [25 mM HEPES pH 7.4, 0.5 mM MnCl2, 0.1 mM Na orthovanadate, 2.0 mM dithiothreitol, 0.05% bovine serum albumin (BSA), 0.01% Triton X-100, 3 μM adenosine trisphosphate (ATP), 0.67 nCi/μl gama-P33-ATP, 2.0 μM substrate peptide biotin-FMRLRRLSTKYRT, 1.0% dimethylsulfoxide]. The reaction was stopped by addition of 12.5 μl of an EDTA/detection solution [16 mM EDTA, 40 mM ATP, 0.08% Triton X-100, 4 mg/ml PVT-streptavidin-SPA beads (Amersham Co.)]. After 10 minutes' incubation, the SPA beads were pelleted by 10-minute centrifugation at 1000×G. The measurement was performed in a Topcount scintillation meter from the Perkin Elmer company. […] The IC50 values were determined by a 4-parameter fit using in-house software. […]

The target of another assay is T2, CDK2/CycE (Homo sapiens, UniProt P24941).
T2 construct: GST; purchased ProQinase GmbH, Freiburg; host or cells: Baculovirus-infected Sf9 insect cells
Nature of the assay: CDK2/CycE kinase assay. As to conditions: 0.5 μM ATP, Histone IIIS substrate. As to the method:
Recombinant CDK2- and CycE-GST fusion proteins, purified from Baculovirus-infected insect cells (Sf9), were purchased from ProQinase GmbH, Freiburg. Histone IIIS, which was used as the kinase substrate, was purchased from the Sigma Co.
CDK2/CycE (50 ng/data point) was incubated for 10 mins at 22° C. in the presence of different concentrations of test substances (0 μM, and within the range 0.01-100 μM) in assay buffer [50 mM tris/HCl pH8.0, 10 mM MgCl2, 0.1 mM Na orthovanadate, 1.0 mM dithiothreitol, 0.5 μM ATP, 10 μg/data point Histone IIIS, 0.2 μCi/data point ^33P-gamma ATP, 0.05% NP40, 1.25% dimethylsulfoxide]. The reaction was stopped by addition of EDTA solution (250 mM, pH8.0, 15 μl/data point).
15 μl of each reaction mixture was applied onto P30 filter strips (Wallac Co.), and non-incorporated ^33P-ATP was removed by washing the filter strips three times, for 10 mins each time, in 0.5% phosphoric acid. After drying of the filter strips for 1 hour at 70° C., the filter strips were covered with scintillator strips (MeltiLex™ A, Wallac Co.) and baked for 1 hour at 90° C. The quantity of incorporated ^33P (substrate phosphorylation) was determined by scintillation measurement in a gamma radiation meter (Wallac).

The target in the next assay is T3, Tie-2 (Homo sapiens, UniProt Q02763).
T3 construct: consisting of GST and the intracellular domain of Tie-2; made in house; host or cells: insect cells (Hi-5)
T3 sequence (Q02763 770-1124 limits assumed, species assumed): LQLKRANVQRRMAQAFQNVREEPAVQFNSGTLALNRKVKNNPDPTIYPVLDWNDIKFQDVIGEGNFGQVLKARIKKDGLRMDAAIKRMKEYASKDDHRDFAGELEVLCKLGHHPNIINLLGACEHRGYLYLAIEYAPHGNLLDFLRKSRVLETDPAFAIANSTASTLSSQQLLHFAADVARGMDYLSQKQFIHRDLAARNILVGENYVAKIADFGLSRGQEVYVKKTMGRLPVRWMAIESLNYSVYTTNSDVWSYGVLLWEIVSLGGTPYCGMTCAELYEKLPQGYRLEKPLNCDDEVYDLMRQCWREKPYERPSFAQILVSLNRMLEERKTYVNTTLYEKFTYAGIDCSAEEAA
As to the kind of experiment: Tie-2 kinase assay without prior activation of the kinase. As to conditions: 10 μM ATP. An excerpt:
For the kinase assay, a recombinant fusion protein expressed in insect cells (Hi-5) and purified by glutathione-sepharose affinity chromatography, consisting of GST and the intracellular domain of Tie-2, was used. Alternatively, commercially available GST-Tie2 fusion protein (Upstate Biotechnology, Dundee, Scotland) can be used. As the substrate for the kinase reaction, the biotinylated peptide biotin-Ahx-EPKDDAYPLYSDFG (C-terminus in amide form), which can be acquired e.g. from the company Biosyntan GmbH (Berlin-Buch, Germany) was used. […]
The resulting mixture was incubated for 1 hr at 22° C. in order to allow the binding of the biotinylated phosphorylated peptide to the streptavidin-XLent and the PT66-Eu-chelate. After this, the quantity of the phosphorylated substrate peptide was determined by measurement of the resonance energy transfer from the PT66-Eu chelate to the streptavidin-XLent. For this purpose, the fluorescence emission at 620 nm and 665 nm after excitation at 350 nm was measured in a HTRF meter, e.g. Rubystar (BMG Labtechnologies, Offenburg, Germany) or Viewlux (Perkin-Elmer). The ratio of the emissions at 665 nm and at […] was used as a measure of the quantity of the phosphorylated substrate peptide. […]

Turning to `CCOC(=O)N=S(C)(=O)c1ccc(Nc2ncc(-c3cccs3)c(N[C@H](C)CO)n2)cc1` (mixture of isomers) [Example 1.1, (RS)—N-(ethoxycarbonyl)-S-(4-{[4-{[(R)-2-hydroxy-1-methylethyl]amino}-5-(2-thienyl)pyrimidine-2-yl]amino}phenyl)-S-methylsulfoximide], on Aurora-C, half-maximal inhibition (IC50) required 2 µM.

As for `CCS(=N)(=O)c1ccc(Nc2ncc(-c3ccsc3)c(N[C@H](CO)CC(C)C)n2)cc1` (mixture of isomers) [Example 5.3, (RS)—S-ethyl-S-(4-{[4-{[(S)-1-(hydroxymethyl)-3-methylbutyl]amino}-5-(3-thienyl)pyrimidine-2-yl]amino}phenyl)sulfoximide], the IC50 – broadly, the midpoint of a concentration-inhibition curve – against CDK2/CycE is 3 µM.

Compound `CC[C@H](CO)Nc1nc(Nc2ccc(S(C)(=N)=O)c(Br)c2)ncc1-c1cccs1` (mixture of isomers) [Example 5.5, (RS)—S-{2-bromo-4-[(4-{[(R)-1-(hydroxymethyl)propyl]amino}-5-(2-thienyl)-pyrimidine-2-yl)amino]phenyl}-S-methylsulfoximide] came in with an IC50 against Tie-2 of 3 µM.
